Structures can show the parent of a compound that is named as a salt.
Legend:
[1] = tested on: rats treated with Triton WR-1339; test: Hypolipemic action on the rat, Triton WR-1339 method; assay type: in vivo; conditions: for Percentage reduction of lipids: Cholesterol / Percentage reduction of lipids: Total Lipids / Percentage reduction of lipids: Triglycerides: Table VI, with respect to Triton WR-1339
Procedure: The above-mentioned Triton WR-1339 method was selected. The total cholesterol, triglycerides and total lipids were determined in the serum. The amount of Triton WR-1339 administered to the animals was 300 mg/kg. The amount of piperazine 2,5-dihydroxy benzene sulfonate mono-tosylate administered was 2 mMoles/Kg orally. The letter P signifies probability.
The above-mentioned Triton WR-1339 method was selected. The total cholesterol, triglycerides and total lipids were determined in the serum. The results obtained are given in Table V. The amount of Triton WR-1339 administered to the animals was 300 mg/Kg. The amount of the piperazine salt with one mole of the di-0-(p-chloro phenoxy isobutyrate) of 2,5-dihydroxy benzene sulfonic acid administered was 1 mMol/Kg orally. The letter P signifies probability.
In this Triton WR-1339 method, all the compounds are administered at a dose of 2 mMoles/Kg orally excepted those compounds in which is the residue of p-chlorophenoxy isobutyric acid, which are administered orally at a dose corresponding to 2 mMoles of R per Kg, i.e. the amount used is calculated on the basis of the residue R only.

[2] = Acute toxicity (LD50), mouse, oral, method of Reed and Muench; assay type: in vivo, mouse (albino); conditions: mouse, in vivo, po
Procedure: (§1) The acute toxicities for the mouse are also very low. The medium lethal dose (LD50) for the mouse was determined according to the modified method of Reed and Muench (Reed L. J. & Muench H., Am. J. Hyg., 27, 493, 1938).
(§2) 1. ACUTE TOXICITY IN THE MOUSE AND RAT
(§3) 18 to 25 gr albino mouse.
(§4) The LD50 was determined according to the method of Reed and Muench. […]

mouse = test: as above; assay type: in vivo, mouse (albino); conditions: Table VI; species and route not printed in table (mouse per b12)
Procedure: as §1, §2, §3, §4

white Leghorn chickens = test: Hypolipemic action on the chicken; assay type: in vivo, chicken (white Leghorn)
Procedure: as §1
This study was performed with white Leghorn chickens, according to the above-mentioned method. The total cholesterol and the total lipids are determined in the plasma.

[3] = Acute toxicity (LD50), rat, oral, method of Reed and Muench; set-up: species or system rat (Sprague-Dawley); conditions: in vivo
Procedure: as §2
100 to 150 gr. Sprague-Dawley rats.
The LD50 was determined according to the method of Reed and Muench.

[4] = orally, 2 mMoles of R (p-chlorophenoxy isobutyric acid residue) per Kg
[5] = Table VI, species and route not printed in table (mouse per b12), read-out: LD50 (medium lethal dose)
[6] = Triton 300 mg/kg + compound 2 mMoles/Kg orally, P<0,0005

Compound: CC(C)(Oc1ccc(Cl)cc1)C(=O)Oc1ccc(O)cc1S(=O)(=O)O [calcium 2-O-(p-chlorophenoxyisobutyryl) 2,5-dihydroxy benzene sulfonate]
- Percentage reduction of lipids: Cholesterol [1, 4]: 30%
- Percentage reduction of lipids: Total Lipids [1, 4]: 26%
- Percentage reduction of lipids: Triglycerides [1, 4]: 32%
- LD50 [2, 5]: 3.35 mg/kg

Compound: Cc1ccc(S(=O)(=O)Oc2ccc(O)c(S(=O)(=O)O)c2)cc1 [diethylamine-2,5-dihydroxybenzenesulfonate monotosylate] [diethylamine 2,5-dihydroxy benzene sulfonate mono-tosylate]
- Percentage reduction of lipids: Cholesterol ([1]; 2 mMoles/Kg orally): 23%
- Percentage reduction of lipids: Total Lipids ([1]; 2 mMoles/Kg orally): 31%
- Percentage reduction of lipids: Triglycerides ([1]; 2 mMoles/Kg orally): 32%
- LD50 (medium lethal dose) (mouse): 6.588 mg/kg

Compound: CC(C)(Oc1ccc(Cl)cc1)C(=O)Oc1ccc(OC(=O)C(C)(C)Oc2ccc(Cl)cc2)c(S(=O)(=O)O)c1 [magnesium salt of di-O-(p-chloro phenoxy isobutyrate) of 2,5] [magnesium salt of di-O-(p-chlorophenoxy isobutyrate) of 2,5-dihydroxy benzene sulfonic acid]
- Percentage reduction of lipids: Cholesterol [1, 4]: 5%
- Percentage reduction of lipids: Total Lipids [1, 4]: 25%
- Percentage reduction of lipids: Triglycerides [1, 4]: 51%
- LD50 (medium lethal dose) (mouse): 4.780 mg/kg

Compound: CC(C)(Oc1ccc(Cl)cc1)C(=O)Oc1ccc(O)c(S(=O)(=O)O)c1 [mono-p-chloro phenoxy isobutyrate of pyridine 2,5-dihydroxy benzene sulfonate]
- LD50 [2, 5]: 900 mg/kg

Compound: Cc1ccc(S(=O)(=O)Oc2ccc(O)c(S(=O)(=O)O)c2)cc1 [morpholine 2,5-dihydroxybenzenesulfonate monotosylate] [morpholine 2.5-dihydroxybenzenesulphonate monotosylate]
- Percentage reduction of lipids: Cholesterol ([1]; 2 mMoles/Kg orally): 12%
- Percentage reduction of lipids: Total Lipids ([1]; 2 mMoles/Kg orally): 31%
- Percentage reduction of lipids: Triglycerides ([1]; 2 mMoles/Kg orally): 23%
- LD50 (medium lethal dose) (mouse): 5.301 mg/kg

Compound: O=C(Oc1ccc(OC(=O)c2ccccc2)c(S(=O)(=O)O)c1)c1ccccc1 [morpholine 2.5-dihydroxybenzenesulphonate dibenzoate]
- LD50 [2, 5]: 4000 mg/kg

Compound: Cc1ccc(S(=O)(=O)Oc2ccc(O)c(S(=O)(=O)O)c2)cc1 [piperazine 2,5-dihydroxybenzenesulfonate monotosylate] [piperazine 2.5-dihydroxybenzenesulphonate monotosylate]
- total lipids, b/a . 100 (Y) (white Leghorn chickens; final relative to initial value, check sample X = 1075): 726
- total cholesterol, b/a . 100 (Y) (white Leghorn chickens; final relative to initial value, check sample X = 1514): 1017
- total cholesterol, final value (b) (white Leghorn chickens; final value): 947,2 mg % ml of plasma
- total lipids, final value (b) (white Leghorn chickens; final value): 2360,8 mg % ml of plasma
- total cholesterol, initial value (a) (white Leghorn chickens; initial value): 93,1 mg % ml of plasma
- total lipids, initial value (a) (white Leghorn chickens; initial value): 325,2 mg % ml of plasma
- Percentage reduction of lipids: Cholesterol ([1]; 2 mMoles/Kg orally): 18%
- Percentage reduction of lipids: Total Lipids ([1]; 2 mMoles/Kg orally): 42%
- Percentage reduction of lipids: Triglycerides ([1]; 2 mMoles/Kg orally): 43%
- total cholesterol ([1]; Triton 300 mg/kg + compound 2 mMoles/Kg orally, 0,0005<P<0,0025): 232,3 mg % ml of plasma
- total lipids [1, 6]: 1211,4 mg % ml of plasma
- triglycerides [1, 6]: 639,8 mg % ml of plasma

Compound: Cc1ccc(S(=O)(=O)Oc2ccc(O)c(S(=O)(=O)O)c2)cc1 [piperazine 2.5-dihydroxybenzenesulphonate monotosylate]
- LD50 ([3]; rat female): 11900 mg/kg
- LD50 ([3]; rat male): > 11900 mg/kg
- LD50 ([2]; mouse female, read-out: LD50): > 10800 mg/kg
- LD50 ([2]; mouse male, read-out: LD50): > 10800 mg/kg

Compound: CC(C)(Oc1ccc(Cl)cc1)C(=O)Oc1ccc(OC(=O)C(C)(C)Oc2ccc(Cl)cc2)c(S(=O)(=O)O)c1 [piperazine mono-salt of di-O-(p-chlorophenoxy isobutyrate) of 2,5-dihydroxy benzene sulfonic acid]
- LD50 ([3]; rat female): 11700 mg/kg
- LD50 ([3]; rat male): 11000 mg/kg
- LD50 [2, 5]: 11000 mg/kg
- LD50 ([2]; mouse female, read-out: LD50): 8700 mg/kg
- LD50 ([2]; mouse male, read-out: LD50): 11000 mg/kg

Compound: Cc1ccc(S(=O)(=O)Oc2ccc(O)c(S(=O)(=O)O)c2)cc1 [piperidine 2.5-dihydroxybenzenesulphonate monotosylate]
- LD50 [2, 5]: 5000 mg/kg

Compound: Cc1ccc(S(=O)(=O)Oc2ccc(OS(=O)(=O)c3ccc(C)cc3)c(S(=O)(=O)O)c2)cc1 [pyridine 2,5-dihydroxy benzene sulfonate ditosylate]
- Percentage reduction of lipids: Cholesterol ([1]; 2 mMoles/Kg orally): 17%
- Percentage reduction of lipids: Total Lipids ([1]; 2 mMoles/Kg orally): 31%
- Percentage reduction of lipids: Triglycerides ([1]; 2 mMoles/Kg orally): 44%
- LD50 [2, 5]: 700 mg/kg

Compound: CC(C)(Oc1ccc(Cl)cc1)C(=O)Oc1ccc(O)c(S(=O)(=O)O)c1 [pyridine 2,5-dihydroxybenzenesulfonate mono-p-chloro phenoxy] [mono-p-chloro phenoxy isobutyrate of pyridine 2,5-dihydroxy benzene sulfonate]
- Percentage reduction of lipids: Cholesterol [1, 4]: 16%
- Percentage reduction of lipids: Total Lipids [1, 4]: 23%
- Percentage reduction of lipids: Triglycerides [1, 4]: 27%

Compound: Cc1ccc(S(=O)(=O)Oc2ccc(O)c(S(=O)(=O)O)c2)cc1 [pyridine 2,5-dihydroxybenzenesulfonate monotosylate] [pyridine 2,5-dihydroxy benzene sulfonate mono-tosy-late]
- Percentage reduction of lipids: Cholesterol ([1]; 2 mMoles/Kg orally): 18%
- Percentage reduction of lipids: Total Lipids ([1]; 2 mMoles/Kg orally): 27%
- Percentage reduction of lipids: Triglycerides ([1]; 2 mMoles/Kg orally): 36%
- LD50 (medium lethal dose) (mouse): 680 mg/kg

Compound: CC(C)(Oc1ccc(Cl)cc1)C(=O)Oc1ccc(OC(=O)C(C)(C)Oc2ccc(Cl)cc2)c(S(=O)(=O)O)c1 [pyridine salt of di-O-(p-chloro phenoxy isobutyrate) of 2,5-] [pyridine salt of the di-O-(p-chlorophenoxy isobutyrate) of 2,5-dihydroxy benzene sulfonic acid]
- Percentage reduction of lipids: Cholesterol [1, 4]: 20%
- Percentage reduction of lipids: Total Lipids [1, 4]: 31%
- Percentage reduction of lipids: Triglycerides [1, 4]: 32%

Compound: O=C(Oc1ccc(OC(=O)c2ccccc2)c(S(=O)(=O)O)c1)c1ccccc1 [sodium 2,5-dihydroxybenzenesulfonate dibenzoate] [sodium 2.5-dihydroxybenzenesulphonate dibenzoate]
- Percentage reduction of lipids: Cholesterol ([1]; 2 mMoles/Kg orally): 12%
- Percentage reduction of lipids: Total Lipids ([1]; 2 mMoles/Kg orally): 20%
- Percentage reduction of lipids: Triglycerides ([1]; 2 mMoles/Kg orally): 17%

Compound: Cc1ccc(S(=O)(=O)Oc2ccc(O)c(S(=O)(=O)O)c2)cc1 [sodium 2,5-dihydroxybenzenesulfonate monotosylate] [sodium 2,5-dihydroxy benzene sulfonate mono-tosylate]
- Percentage reduction of lipids: Cholesterol ([1]; 2 mMoles/Kg orally): 10%
- Percentage reduction of lipids: Total Lipids ([1]; 2 mMoles/Kg orally): 39%
- Percentage reduction of lipids: Triglycerides ([1]; 2 mMoles/Kg orally): 36%

— patent US3954767A, “Piperazine salts of 2,5-dihydroxy benzene sulfonic acid mono- and diesters” (priority 1972, dated 1976)
